From ChEMBL document CHEMBL1134750, “Structure-activity relationship on the human EP3 prostanoid receptor by use of solid-support chemistry” (Bioorg Med Chem Lett, 2001)
Values belong to the compound of their own block, whether it stands above or below them.

Legend:
[1] = biological target: T1, Prostaglandin E2 receptor EP3 subtype (Homo sapiens) (UniProt P43115); assay: Residual binding of radiolabeled PGE-2 on the Prostanoid EP3 receptor at a concentration of 1 uM
T1 sequence (whole entry): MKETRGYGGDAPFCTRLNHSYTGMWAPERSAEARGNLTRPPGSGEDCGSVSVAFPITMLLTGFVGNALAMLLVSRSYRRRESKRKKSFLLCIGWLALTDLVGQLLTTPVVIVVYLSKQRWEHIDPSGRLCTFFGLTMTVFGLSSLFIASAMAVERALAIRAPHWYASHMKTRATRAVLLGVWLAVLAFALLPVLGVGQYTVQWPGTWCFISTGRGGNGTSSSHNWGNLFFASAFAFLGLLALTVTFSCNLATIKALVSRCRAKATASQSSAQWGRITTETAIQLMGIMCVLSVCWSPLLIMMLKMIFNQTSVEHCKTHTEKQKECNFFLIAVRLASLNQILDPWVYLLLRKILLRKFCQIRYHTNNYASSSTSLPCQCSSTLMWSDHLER

[2] = biological target: T2, Prostaglandin D2 receptor (Homo sapiens, UniProt Q13258); assay: Antagonistic activity at Prostanoid DP receptor in human was determined; type: functional
T2 sequence (Q13258 whole entry): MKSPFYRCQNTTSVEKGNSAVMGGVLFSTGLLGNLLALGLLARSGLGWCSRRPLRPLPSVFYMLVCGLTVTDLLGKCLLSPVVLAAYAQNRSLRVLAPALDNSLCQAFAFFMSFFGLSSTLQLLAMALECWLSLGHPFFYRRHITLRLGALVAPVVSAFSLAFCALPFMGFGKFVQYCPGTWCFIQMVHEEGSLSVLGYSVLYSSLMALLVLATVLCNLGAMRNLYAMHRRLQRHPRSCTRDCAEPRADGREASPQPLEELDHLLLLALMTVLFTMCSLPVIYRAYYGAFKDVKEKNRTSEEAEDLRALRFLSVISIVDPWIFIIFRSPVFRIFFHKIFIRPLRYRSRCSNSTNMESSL

Prostacyclin receptor = Prostacyclin receptor (Homo sapiens, UniProt P43119); assay: Antagonistic activity at Prostanoid IP receptor in human was determined; type: functional
[3] = biological target: T3, Prostaglandin E2 receptor EP1 subtype (Homo sapiens, UniProt P34995); assay: Antagonistic activity at Prostanoid EP1 receptor in human was determined; type: functional
T3 sequence (P34995 whole entry): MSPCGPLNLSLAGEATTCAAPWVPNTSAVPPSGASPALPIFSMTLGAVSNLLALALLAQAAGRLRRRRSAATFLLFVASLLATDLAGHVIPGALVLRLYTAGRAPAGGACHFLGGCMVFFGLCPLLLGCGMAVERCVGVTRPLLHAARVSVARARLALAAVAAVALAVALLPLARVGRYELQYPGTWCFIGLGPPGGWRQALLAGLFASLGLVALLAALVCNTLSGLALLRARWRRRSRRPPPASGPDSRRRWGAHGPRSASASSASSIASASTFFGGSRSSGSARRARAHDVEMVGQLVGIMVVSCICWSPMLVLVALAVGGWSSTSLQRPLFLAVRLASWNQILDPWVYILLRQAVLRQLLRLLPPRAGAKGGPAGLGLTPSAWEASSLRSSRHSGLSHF

Thromboxane A2 receptor = biological target: T4, Thromboxane A2 receptor (Homo sapiens, UniProt P21731); assay: Antagonistic activity at Thromboxane A2 receptor in human was determined; type: functional
T4 sequence (P21731 whole entry): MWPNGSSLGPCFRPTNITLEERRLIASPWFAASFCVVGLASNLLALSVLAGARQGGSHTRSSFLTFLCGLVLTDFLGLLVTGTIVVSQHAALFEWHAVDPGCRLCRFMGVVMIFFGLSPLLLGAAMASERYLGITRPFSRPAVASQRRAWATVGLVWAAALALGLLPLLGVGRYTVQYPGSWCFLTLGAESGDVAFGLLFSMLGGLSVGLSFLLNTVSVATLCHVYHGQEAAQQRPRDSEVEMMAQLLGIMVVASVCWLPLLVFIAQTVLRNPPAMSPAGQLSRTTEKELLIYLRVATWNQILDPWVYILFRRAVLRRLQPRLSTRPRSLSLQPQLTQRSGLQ

[4] = biological target: Prostaglandin F2-alpha receptor (Homo sapiens, UniProt P43088); assay: Antagonistic activity at Prostanoid FP receptor in human was determined; type: functional
[5] = biological target: Prostaglandin E2 receptor EP2 subtype (Homo sapiens, UniProt P43116); assay: Antagonistic activity at Prostanoid EP2 receptor in human was determined; type: functional
[6] = biological target: Prostaglandin E2 receptor EP4 subtype (Homo sapiens, UniProt P35408); assay: Antagonistic activity at Prostanoid EP4 receptor in human was determined; type: functional
[7] = biological target: T5, Prostaglandin E2 receptor EP3 subtype (Homo sapiens, UniProt P43115); assay: Antagonistic activity at Prostanoid EP3 receptor in human was determined; type: functional
T5 sequence (P43115 whole entry): T1 sequence (whole entry)

Sequence of Prostaglandin E2 receptor EP4 subtype (P35408 whole entry): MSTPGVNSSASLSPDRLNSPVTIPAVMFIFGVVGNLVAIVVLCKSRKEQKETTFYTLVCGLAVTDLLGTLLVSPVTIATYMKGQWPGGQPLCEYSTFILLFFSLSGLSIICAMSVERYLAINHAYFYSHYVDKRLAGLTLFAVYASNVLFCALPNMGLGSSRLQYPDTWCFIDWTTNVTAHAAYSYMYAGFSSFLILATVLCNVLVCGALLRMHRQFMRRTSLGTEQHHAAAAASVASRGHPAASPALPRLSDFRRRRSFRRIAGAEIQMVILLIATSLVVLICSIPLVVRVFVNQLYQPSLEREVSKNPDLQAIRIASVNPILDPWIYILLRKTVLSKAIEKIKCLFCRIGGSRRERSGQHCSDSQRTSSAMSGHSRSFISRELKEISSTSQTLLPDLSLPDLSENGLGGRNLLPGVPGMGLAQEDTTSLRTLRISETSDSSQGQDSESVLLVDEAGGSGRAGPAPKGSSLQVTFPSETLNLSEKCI
Sequence of Prostaglandin F2-alpha receptor (P43088 whole entry): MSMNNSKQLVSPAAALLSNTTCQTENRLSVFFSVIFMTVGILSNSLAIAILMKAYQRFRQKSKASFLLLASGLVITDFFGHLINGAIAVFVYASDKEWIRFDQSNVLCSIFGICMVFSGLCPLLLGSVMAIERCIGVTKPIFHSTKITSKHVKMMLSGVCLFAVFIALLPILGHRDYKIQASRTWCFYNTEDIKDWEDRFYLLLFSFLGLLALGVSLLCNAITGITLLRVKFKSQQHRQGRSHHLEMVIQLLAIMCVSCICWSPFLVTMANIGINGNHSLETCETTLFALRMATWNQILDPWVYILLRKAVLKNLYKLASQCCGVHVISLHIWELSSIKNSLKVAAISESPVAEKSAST
Sequence of Prostaglandin E2 receptor EP2 subtype (P43116 whole entry): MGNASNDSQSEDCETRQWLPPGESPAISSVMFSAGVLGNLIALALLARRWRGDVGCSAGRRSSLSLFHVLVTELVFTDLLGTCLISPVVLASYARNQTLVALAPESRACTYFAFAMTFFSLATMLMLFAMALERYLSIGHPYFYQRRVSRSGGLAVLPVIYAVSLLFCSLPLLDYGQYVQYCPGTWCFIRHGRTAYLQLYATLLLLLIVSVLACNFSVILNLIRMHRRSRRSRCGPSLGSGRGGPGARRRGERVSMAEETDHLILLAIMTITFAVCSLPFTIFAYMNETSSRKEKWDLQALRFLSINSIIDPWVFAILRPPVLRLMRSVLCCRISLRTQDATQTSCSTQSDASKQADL
Sequence of Prostacyclin receptor (P43119 whole entry): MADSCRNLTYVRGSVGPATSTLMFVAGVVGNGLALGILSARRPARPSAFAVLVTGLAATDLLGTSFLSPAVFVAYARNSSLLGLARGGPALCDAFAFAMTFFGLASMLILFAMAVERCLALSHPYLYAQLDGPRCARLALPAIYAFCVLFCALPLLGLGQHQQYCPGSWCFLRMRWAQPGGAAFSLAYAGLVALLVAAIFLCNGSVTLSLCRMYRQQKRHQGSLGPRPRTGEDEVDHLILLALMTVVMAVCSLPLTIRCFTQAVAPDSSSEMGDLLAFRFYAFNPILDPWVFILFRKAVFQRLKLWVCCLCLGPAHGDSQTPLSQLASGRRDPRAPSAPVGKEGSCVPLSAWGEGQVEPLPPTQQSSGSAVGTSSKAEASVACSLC

Residual binding [1]: 74%
Compound: OB(O)c1cccs1

Residual binding [1]: 77%
Compound: OB(O)c1ccsc1

Ki [2]: 2.5 µM | Ki (Prostacyclin receptor): 31 µM | Ki [3]: > 100 µM | Ki (Thromboxane A2 receptor): 0.52 µM | Ki [4]: 63 µM | Ki [5]: 4.1 µM | Ki [6]: > 40 µM | Ki [7]: 0.11 µM
Compound: O=C(O)/C=C/c1ccccc1Cc1ccc(Cl)cc1Cl

Residual binding [1]: 68%
Compound: OB(O)c1ccccc1CSCCc1ccccc1

Residual binding [1]: 93%
Compound: COc1ccccc1B(O)O

Ki [2]: 0.53 µM | Ki (Prostacyclin receptor): > 100 µM | Ki [3]: > 100 µM | Ki (Thromboxane A2 receptor): 10 µM | Ki [4]: 69 µM | Ki [5]: 12 µM | Ki [6]: 3.1 µM | Ki [7]: 0.02 µM
Compound: O=C(O)/C=C/c1ccccc1Cc1ccc2ccccc2c1

Residual binding [1]: 27%
Compound: CSc1ccc(B(O)O)cc1

Residual binding [1]: 89%
Compound: OB(O)c1ccccc1C(F)(F)F

Residual binding [1]: 55%
Compound: OB(O)c1cccc(Cl)c1

Residual binding [1]: 54%
Compound: OB(O)c1cccc(C(F)(F)F)c1

Residual binding [1]: 84%
Compound: OCc1cccc(B(O)O)c1

Residual binding [1]: 52%
Compound: OB(O)c1cccc(CSCCc2ccccc2)c1

Residual binding [1]: 96%
Compound: CSc1ccccc1B(O)O

Ki [2]: 4.1 µM | Ki (Prostacyclin receptor): > 76 µM | Ki [3]: > 100 µM | Ki (Thromboxane A2 receptor): 4.6 µM | Ki [4]: > 83 µM | Ki [5]: 43 µM | Ki [6]: > 50 µM | Ki [7]: 0.08 µM
Compound: CSc1ccc(Cc2ccccc2/C=C/C(=O)O)cc1

Residual binding [1]: 48%
Compound: OB(O)c1cccc2ccccc12

Residual binding [1]: 5%
Compound: OB(O)c1ccc2ccccc2c1

Residual binding [1]: 61%
Compound: OB(O)c1cc2ccccc2o1

Residual binding [1]: 8%
Compound: OB(O)c1ccc(Cl)c(Cl)c1

Residual binding [1]: 84%
Compound: COc1ccc(B(O)O)cc1OC

Ki [2]: 2.4 µM | Ki (Prostacyclin receptor): 37 µM | Ki [3]: 63 µM | Ki (Thromboxane A2 receptor): 0.9 µM | Ki [4]: 41 µM | Ki [5]: 13 µM | Ki [6]: 10 µM | Ki [7]: 0.032 µM
Compound: O=C(O)/C=C/c1ccccc1Cc1ccc(Cl)c(Cl)c1

Residual binding [1]: 91%
Compound: OB(O)c1ccco1

Residual binding [1]: 25%
Compound: OB(O)c1ccc(Cl)cc1Cl

Residual binding [1]: 100%
Compound: CC(C)(C)NS(=O)(=O)c1ccc(B(O)O)cc1
